In US8222422B2, “Crystal of benzimidazole compound” (Takeda Pharmaceutical Company Limited, priority 2008, dated 2012):
Values after ≈ are worked out from the molar mass of the structure shown.

Tests used:
Type in all cases: physicochemical
[1] = Stability Test (residual rate of the crystal after preservation, by HPLC); conditions: crystals in a brown glass bottle, preserved at 40° C. for 2 weeks
Description: Residual rate was measured by HPLC (YMC-Pack AQ-302 ODS 4.6 mm i.d.×150 mm, temperature: about 25° C., mobile phase: (A) water (B) acetonitrile:water:triethylamine=160:40:1, gradient program, detection wavelength: 285 nm).

[2] = Solubility Test, aqueous solution with pH 6.9; conditions: aqueous buffer, thermodynamic from solid, 8.87 mg almost dissolved when 35 mL was added
Description: To the crystals (8.87 mg) obtained in Example 6 was gradually added dropwise an aqueous solution with pH 6.9.

[3] = Solubility Test, aqueous solution with pH 9.2; conditions: aqueous buffer, thermodynamic from solid, 10.75 mg almost dissolved when 13.5 mL was added
Description: To the crystals (10.75 mg) obtained in Example 6 was gradually added dropwise an aqueous solution with pH 9.2. The crystals were almost dissolved at the time point when 13.5 mL was added (solubility: 0.80 mg/mL).

- residual rate [1]: 100.7%
- solubility [2]: 250 µg/mL (≈ 677 µM)
- solubility [3]: 800 µg/mL (≈ 2170 µM)
SMILES: Cc1c(OCC(F)(F)F)ccnc1C[S@@+]([O-])c1nc2ccccc2[nH]1 [Example 6, (R)-2-[[[3-methyl-4-(2,2,2-trifluoroethoxy)-2-pyridyl]methyl]sulfinyl]benzimidazole]
